For one experiment, the target named is T1, human ACSS2 (Homo sapiens, UniProt Q9NR19).
T1 construct: The cytosolic fraction of BT474 cells was used as a source of the ACSS2 enzyme; endogenous in cells; host or cells: BT474 cells (cytosolic fraction)
Nature of the experiment: ACSS2 enzyme assay (acetyl-CoA formation, LC-MS/MS). The format is biochemical. To be noted: cytosolic fraction of BT474 cells as ACSS2 source; 100 μM acetate, CoA and ATP; 2 h at 25° C.; read-out: Enzyme Activity (IC50 range). As to the method: Novel compounds were screened in a human ACSS2 enzyme assay. Briefly, the ACSS2 enzyme reaction was monitored by directly measuring acetyl-CoA formation. The cytosolic fraction of BT474 cells was used as a source of the ACSS2 enzyme. A short protocol for this assay is provided below.
Preparation of Cytosolic Fraction from BT474 Cells
9×10^6 cells were harvested by trypsinization followed by centrifugation. The cell pellet was washed with PBS and dissolved in 500 μl STM buffer (50 mM Tris-HCl pH7.4, 250 mM sucrose, 5 mM MgCl2 & protease-phosphatase inhibitor cocktail) and homogenized at 600-1000 rpm for 1 min. on ice followed by incubation for 30 min. with intermittent vortexing. Supernatant was collected by centrifugation at 800 g for 15 min. at 4° C. Cytosolic fraction was prepared by further centrifugation of the supernatant at 12000 g for 15 min. at 4° C. Total protein content of the cytosolic fraction was estimated & diluted to 1 mg/ml concentration in storage buffer (25 mM Tris-HCl pH7.4, 1 mM MgCl2, 1 mM DTT & 10% glycerol) and stored at −80° C. for further use.
100 ng of cytosolic fraction in buffer composed of 25 mM Tris-HCl pH7.4 1 mM MgCl2, 1 mM DTT & 0.05% Tween20 was preincubated with desired concentrations of novel compounds for 5 min. maintaining 1% DMSO. Reaction was started with addition of substrate mix (100 μM of acetate, CoA and ATP) and incubated for 2 h at 25° C. with constant shaking at 500 rpm. Post incubation the reaction was terminated by addition of 10% TCA followed by 5 fold dilution in water. The reaction mixture was centrifuged at 800 g for 10 min. at RT and acetyl-CoA detected in supernatant by LC-MS/MS (QTrap5500 ABSCIEX).

Experiment [1] concerns [14C] acetate incorporation in macromolecules, BT474 cells. Nature of the experiment: Cell based [14C] acetate incorporation assay. To be noted: Homo sapiens, BT-474, 3 h at 37° C., read-out: Cellular Activity (IC50 range). As to the method:
Cell Based [^14C] Acetate Incorporation Assay
In the cellular assay, ACSS2 inhibitors were screened against [^14C] acetate incorporation in macromolecules. 4×10^4 BT474 cells were plated in 96 well plates in growth media composed of DMEM & 10% FBS and incubated overnight in a 37° C., 5% CO2 incubator. The following day the cells were washed in HBSS and the assay was performed in 100 μl of HBSS. 50 μl of 4× compound in 4% DMSO was added to the cells and preincubated for 10 min. at 37° C. 50 μl of acetate solution (0.1 μCi ^14C acetate+10 μM ^12C acetate) was added to each well of the plate and incubated for 3 h in a 37° C., 5% CO2 incubator. Following incubation, cells were harvested with water on polyethylene imine (PEI) presoaked GF/C filtermat, air dried and radioactive count were recorded in Trilux micro beta Liquid Scintillation Counter (PerkinElmer).

SMILES strings stand for the structures. A value given as a limit tells only on which side of the number the result lay.

One may read the IC50 as the concentration needed to halve the response being measured.

T1 sequence (Q9NR19 whole entry): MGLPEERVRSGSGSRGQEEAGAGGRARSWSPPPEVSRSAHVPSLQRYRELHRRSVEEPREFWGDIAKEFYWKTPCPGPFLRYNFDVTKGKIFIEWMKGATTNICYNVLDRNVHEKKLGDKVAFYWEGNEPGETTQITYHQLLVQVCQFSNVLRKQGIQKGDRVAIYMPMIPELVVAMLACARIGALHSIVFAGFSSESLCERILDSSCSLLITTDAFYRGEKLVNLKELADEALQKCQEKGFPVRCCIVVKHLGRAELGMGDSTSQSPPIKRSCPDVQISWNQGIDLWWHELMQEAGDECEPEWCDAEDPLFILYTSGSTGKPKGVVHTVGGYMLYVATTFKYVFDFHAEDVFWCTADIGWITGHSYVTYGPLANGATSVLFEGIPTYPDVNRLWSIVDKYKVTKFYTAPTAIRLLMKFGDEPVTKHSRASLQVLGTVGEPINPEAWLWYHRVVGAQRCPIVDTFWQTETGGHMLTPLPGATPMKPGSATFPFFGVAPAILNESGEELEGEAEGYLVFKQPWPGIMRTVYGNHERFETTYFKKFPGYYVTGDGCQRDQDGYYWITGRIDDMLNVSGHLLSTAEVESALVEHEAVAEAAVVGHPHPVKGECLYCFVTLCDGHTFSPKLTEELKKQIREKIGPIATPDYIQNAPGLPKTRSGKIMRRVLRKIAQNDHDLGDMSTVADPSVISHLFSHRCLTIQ

Turning to `CCC(O)CNC(=O)Nc1ccc2nc(C)c(-c3ccccc3)c(NC(C)=O)c2c1` (stereo not shown) [Example 93, N-(6-(3-(2-hydroxybutyl)ureido)-2-methyl-3-phenylquinolin-4-yl)acetamide], the IC50 on human ACSS2 was under 100 nM; in experiment [1], at most 1000 nM.
Taken in the same sequence, the figures for `CCC(F)(F)CNC(=O)Nc1ccc2nc(C)c(-c3ccccc3F)cc2c1` [Example 110, 1-(2,2-difluorobutyl)-3-(3-(2-fluorophenyl)-2-methylquinolin-6-yl)urea] were under 100 nM and under 100 nM.
In the same order, the values of `CCC(O)CNC(=O)Nc1ccc2nc(C)c(-c3ccccc3)cc2c1C1CC1` (stereo not shown) [Example 86, 1-(5-cyclopropyl-2-methyl-3-phenylquinolin-6-yl)-3-(2-hydroxybutyl) urea] are under 100 nM and under 100 nM.
In the case of `CCC(O)CNC(=O)Nc1ccc2nc(-c3cccnc3)c(-c3cccnc3)cc2c1` (stereo not shown) [Example 19, 1-(2,3-di(pyridin-3-yl)quinolin-6-yl)-3-(2-hydroxybutyl) urea], the figures for the 50% inhibitory concentration (IC50) (at human ACSS2; in experiment [1]) were under 100 nM and at most 10000 nM, respectively.
In the same order, the values of `CCCCNC(=O)Nc1ccc2nc(C)c(-c3ccccc3)cc2c1` [Example 76, 1-butyl-3-(2-methyl-3-phenylquinolin-6-yl)urea] are at most 1000 nM and under 100 nM.
Regarding `CCC(O)CNC(=O)Nc1ccc2nc(C(F)(F)F)c(-c3ccccc3)cc2c1` (stereo not shown) [Example 88, 1-(2-hydroxybutyl)-3-(3-phenyl-2-(trifluorometh-yl)quinolin-6-yl)urea], the IC50 on human ACSS2 was at most 10000 nM; in experiment [1] it was over 10000 nM.
Taken in the same sequence, the figures for `CCC(O)CNC(=O)Nc1ccc2nc(-c3ccccc3F)c(-c3ccccc3OC)cc2c1` (stereo not shown) [Example 26, 1-(2-(2-fluorophenyl)-3-(2-methoxyphenyl)quinolin-6-yl)-3-(2-hydroxybutyl) urea] were under 100 nM and under 100 nM.
In the same order, the values of `CCC(O)CNC(=O)Nc1ccc2nc(-c3ccccc3)c(-c3ccccc3OC)cc2c1` (stereo not shown) [Example 10, 1-(2-hydroxybutyl)-3-(3-(2-methoxyphenyl)-2-phenylquinolin-6-yl)urea] are under 100 nM and under 100 nM.
Taken in the same sequence, the figures for `CCC(O)CNC(=O)Nc1ccc2nc(-c3ccccc3F)c(-c3ccccc3)cc2c1` (stereo not shown) [Example 8, 1-(2-(2-fluorophenyl)-3-phenylquinolin-6-yl)-3-(2-hydroxybutyl) urea] were under 100 nM and under 100 nM.
Take `CCC(O)CCC(=O)Nc1ccc2nc(-c3ccccc3)c(-c3ccccc3)cc2c1` (stereo not shown) [Example 127, N-(2,3-diphenyl-quinolin-6-yl)-4-hydroxy-hexanamide]: the half-inhibitory concentration (IC50) (on human ACSS2; in experiment [1]) was under 100 nM throughout.
Regarding `CCC(O)CNC(=O)Nc1ccc2nc(-c3cccnc3O)c(-c3cccnc3O)cc2c1` (stereo not shown) [Example 42, 1-(2,3-bis(2-hydroxypyridin-3-yl)quinolin-6-yl)-3-(2-hydroxybutyl) urea], the IC50 (on human ACSS2; in experiment [1]) was over 10000 nM throughout.
Turning to `CCCCNC(=O)Nc1ccc2nc(-c3ccccc3F)c(-c3ccccc3F)cc2c1` [Example 14, 1-(2,3-bis(2-fluorophenyl)quinolin-6-yl)-3-butylurea], the IC50 (at human ACSS2; in experiment [1]) was under 100 nM each time.
Take `CCC(O)CCC(=O)Nc1ccc2nc(C)c(-c3ccccc3F)cc2c1` (stereo not shown) [Example 129, N-(3-(2-fluorophenyl)-2-methyl-quinolin-6-yl)-4-hydroxy-hexanamide]: the IC50 (at human ACSS2; in experiment [1]) was under 100 nM in each case.
As to `CCC(O)CNC(=O)Nc1ccc2nc(-c3ccnc(OC)c3)c(-c3ccnc(OC)c3)cc2c1` (stereo not shown) [Example 9, 1-(2,3-bis(2-methoxypyridin-4-yl)quinolin-6-yl)-3-(2-hydroxybutyl) urea], the IC50 on human ACSS2 was over 10000 nM; in experiment [1], at most 10000 nM.
Taken in the same sequence, the figures for `CCC(O)CNC(=O)Nc1ccc2nc(-c3ccccc3N)c(-c3ccccc3F)cc2c1` (stereo not shown) [Example 54, 1-(2-(2-aminophenyl)-3-(2-fluorophenyl)quinolin-6-yl)-3-(2-hydroxybutyl) urea] were under 100 nM and under 100 nM.
Consider `CCC(O)CNC(=O)Nc1ccc2nc(-c3cccnc3OC)c(-c3cccnc3OC)cc2c1` (stereo not shown) [Example 13, 1-(2,3-bis(2-methoxypyridin-3-yl)quinolin-6-yl)-3-(2-hydroxybutyl) urea], for which the IC50 (on human ACSS2; in experiment [1]) was at most 1000 nM in each case.
Take `CCC(O)CNC(=O)Nc1ccc2nc(C)c(-c3ccccc3)cc2c1Br` (stereo not shown) [Example 87, 1-(5-bromo-2-methyl-3-phenylquinolin-6-yl)-3-(2-hydroxybutyl) urea]: the IC50 (on human ACSS2; in experiment [1]) was under 100 nM throughout.
With `CC[C@@H](O)CNC(=O)Nc1ccc2nc(C)c(-c3ccccc3)c(C)c2c1` [Example 113, (R)-1-(2,4-dimethyl-3-phenylquinolin-6-yl)-3-(2-hydroxybutyl) urea], the IC50 (on human ACSS2; in experiment [1]) was under 100 nM in each case.
With `COC1CCN(C(=O)Nc2ccc3nc(-c4ccccc4)c(-c4ccccc4)cc3c2)C1` (stereo not shown) [Example 138, N-(2,3-diphenylquinolin-6-yl)-3-methoxypyrrol-idine-1-carboxamide], the 50% inhibitory concentration (IC50) (on human ACSS2; in experiment [1]) was under 100 nM each time.
Consider `CCC(O)CNC(=O)Nc1ccc2nc(C)c(-c3cccnc3)cc2c1` (stereo not shown) [Example 79, 1-(2-hydroxybutyl)-3-(2-methyl-3-(pyridin-3-yl)quinolin-6-yl)urea], for which the IC50 at human ACSS2 was under 100 nM; in experiment [1], at most 1000 nM.
In the same order, the values of `CC[C@@H](O)CNC(=O)Nc1ccc2nc(-c3ccccc3)c(C)c(C(=O)NCc3ccccc3)c2c1` [Example 104, (R)-N-benzyl-6-(3-(2-hydroxybutyl)ureido)-3-methyl-2-phenylquinoline-4-carboxamide] are under 100 nM and under 100 nM.
Taken in the same sequence, the figures for `COCCNC(=O)Nc1ccc2nc(C)c(-c3ccccc3F)cc2c1` [Example 116, 1-(3-(2-fluorophenyl)-2-methylquinolin-6-yl)-3-(2-methoxyethyl) urea] were at most 1000 nM and under 100 nM.
Taken in the same sequence, the figures for `CCC(=O)CCC(=O)Nc1ccc2nc(-c3ccccc3)c(-c3ccccc3)cc2c1` [Example 125, N-(2,3-diphenyl-quinolin-6-yl)-4-oxohexan-amide] were under 100 nM and under 100 nM.
For `CCC(=O)CCC(=O)Nc1ccc2nc(-c3ccccc3OC)c(-c3ccccc3F)cc2c1` [Example 126, N-(3-(2-fluoro-phenyl)-2-(2-methoxy-phenyl)quinolin-6-yl)-4-oxohexan-amide], the half-inhibitory concentration (IC50) (on human ACSS2; in experiment [1]) was under 100 nM in each case.
Consider `CCC(O)CNC(=O)Nc1ccc2nc(-c3ccccc3OCC(C)C)c(-c3ccccc3)cc2c1` (stereo not shown) [Example 59, 1-(2-hydroxybutyl)-3-(2-(2-isobutoxyphe-nyl)-3-phenylquinolin-6-yl)urea], for which the IC50 (at human ACSS2; in experiment [1]) was under 100 nM in each case.
On to `CC[C@@H](O)CNC(=O)Nc1ccc2nc(C)c(-c3ccccc3)cc2c1-c1cnn(C)c1` [Example 96, (R)-1-(2-hydroxybutyl)-3-(2-methyl-5-(1-methyl-1H-pyrazol-4-yl)-3-phenylquinolin-6-yl)urea], for which the IC50 (on human ACSS2; in experiment [1]) was under 100 nM each time.
For `CCC(O)CNC(=O)Nc1ccc2nc(-c3cccnc3)c(-c3ccccc3F)cc2c1` (stereo not shown) [Example 31, 1-(3-(2-fluorophenyl)-2-(pyridin-3-yl)quinolin-6-yl)-3-(2-hydroxybutyl) urea], the IC50 (on human ACSS2; in experiment [1]) was under 100 nM in each case.
For the molecule `CCC(=O)CCC(=O)Nc1ccc2nc(-c3ccccc3F)c(-c3ccccc3)cc2c1` [Example 123, N-(2-(2-fluorophenyl)-3-phenyl-quinolin-6-yl)-4-oxohexan-amide], the IC50 (at human ACSS2; in experiment [1]) was under 100 nM throughout.
As to `CCC(O)CNC(=O)Nc1ccc2nc(-c3ccc(F)cc3)c(-c3ccc(F)cc3)cc2c1` (stereo not shown) [Example 17, 1-(2,3-bis(4-fluorophenyl)quinolin-6-yl)-3-(2-hydroxybutyl) urea], the IC50 (at human ACSS2; in experiment [1]) was under 100 nM throughout.

The values are drawn from US20220298115A1, “SMALL MOLECULE INHIBITORS OF ACETYL COENZYME A SYNTHETASE SHORT CHAIN 2 (ACSS2)” (Curadev Pharma Pvt. Ltd., priority 2019, published 2022).
